Read-outs that look alike come from different tables or passages of the source.
Biological target: T1, thromboxane synthetase (Rattus norvegicus, UniProt P49430)
T1 construct: Whole blood was collected from the heart of male SD rat after isoflurane anesthesia; from tissue; host or cells: whole blood of male Sprague-Dawley rats
T1 sequence (P49430 1-533): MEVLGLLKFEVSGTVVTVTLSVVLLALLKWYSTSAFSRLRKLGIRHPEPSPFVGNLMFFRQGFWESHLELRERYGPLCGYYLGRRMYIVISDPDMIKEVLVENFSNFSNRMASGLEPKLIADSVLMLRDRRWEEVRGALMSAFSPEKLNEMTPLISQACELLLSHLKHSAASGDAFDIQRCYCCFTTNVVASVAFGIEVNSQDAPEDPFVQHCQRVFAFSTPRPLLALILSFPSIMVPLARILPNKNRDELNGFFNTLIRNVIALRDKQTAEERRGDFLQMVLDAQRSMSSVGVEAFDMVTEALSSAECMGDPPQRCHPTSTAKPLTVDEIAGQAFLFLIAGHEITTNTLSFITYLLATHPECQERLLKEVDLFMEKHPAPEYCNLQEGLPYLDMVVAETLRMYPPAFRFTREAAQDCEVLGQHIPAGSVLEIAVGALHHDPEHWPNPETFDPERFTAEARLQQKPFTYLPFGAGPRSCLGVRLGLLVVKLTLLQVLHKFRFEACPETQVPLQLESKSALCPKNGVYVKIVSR
Assay: Release of TXB2 in the in-vitro coagulation process of rats' whole blood
Type: cell-based
Details: male SD rat whole blood, 37° C. 30 mins, TXB2 by LC-MS/MS, read-out: IC50 for the release level of TXB2 in the in-vitro coagulation of rats' whole blood (thromboxane synthetase)
Description: Study for the Release of TXB2 in the in-vitro Coagulation Process of Rats' Whole Blood
In the in-vitro coagulation process, thromboxane A2 (TXA2) pathway was activated, resulting in the formation of large amounts of TXA2, which were rapidly metabolized to its stable form thromboxane B2 (TXB2).
The key enzyme of this pathway was thromboxane synthase. The generation of TXA2 could be inhibited by blocking this enzyme with specific inhibitors (tested compounds), and the level of TXB2 was thus decreased.
The activity of tested compound was measured with the IC50 of inhibiting the formation of TBX2.
Male Sprague-Dawley (SD) rats, purchased from Shanghai SLAC Laboratory Animal Co., Ltd.
0.9% normal saline, […] NaOH solution (vehicle), 100 uM thromboxane synthetase inhibitor solution, isoflurane
1. Tested compound was dissolved by normal saline and prepared to required concentration by gradient dilution. 167 uL of prepared solution was added to centrifuge tube.
2. Whole blood was collected from the heart of male SD rat after isoflurane anesthesia, added to centrifuge tube (0.5 mL), shaken up and incubated under 37° C. water bath for 30 mins until complete coagulation.
3. Centrifuge tube was taken out and centrifuged for 5 mins (6000 g, 4° C.) to get serum.
4. Assay the content of TXB2 by LC-MS/MS-AG (API 4000).
By comparison with the vehicle group, TXB2 contents of each sample were normalized to Control % by the formule:
Control %=(TBX2 level in test tube−TBX2 level in negative tube)/TBX2 level in control tube×100
Note: Test tube: solution of tested compound with series concentration
Negative tube: solution of thromboxane synthetase inhibitor at high concentration (100 uM)
Using GraphPad Prism (concentration as X-axis and Control % as Y-axis) to fit the data and calculate IC50.

| IC50 (class symbols) [nM] | IC50 (numeric value) [nM] | SMILES |
| --- | --- | --- |
| 100 to 250 | – | Oc1cc(-c2ccc(Cn3ccnc3)c(F)c2)on1 [Compound 2, 5-(4-((1H-imidazol-1-yl)methyl)-3-fluorophenyl)isoxazol-3-ol] |
| 50 to 100 | – | Oc1cc(-c2c(F)cc(Cn3ccnc3)cc2F)on1 [Compound 5, 5-(4-((1H-imidazol-1-yl)methyl)-2,6-difluorophenyl)isoxazol-3-ol] |
| 50 to 100 | – | COc1cc(-c2cc(O)no2)ccc1Cn1ccnc1 [Compound 10, 5-(4-((1H-imidazol-1-yl)methyl)-3-methoxyphenyl)isoxazol-3-ol] |
| 100 to 250 | – | CC(C)(c1ccc(-c2cc(O)no2)cc1)n1ccnc1 [Compound 23, 5-(4-(2-(1H-imidazol-1-yl)propan-2-yl)phenyl)isoxazol-3-ol] |
| > 250 | – | Oc1cc(Cc2ccc(Cn3ccnc3)cc2)on1 [Compound 25, 5-(4-(2-(1H-imidazol-1-yl)methyl)benzyl)isoxazol-3-ol] |
| > 250 | – | Oc1nccc(-c2ccc(Cn3ccnc3)cc2)c1F [Compound 27, 4-(4-((1H-imidazol-1-yl)methyl)phenyl)-3-fluoropyridin-2-ol] |
| > 250 | – | Cc1c(O)noc1-c1ccc(Cn2ccnc2)cc1 [Compound 30, 5-(4-((1H-imidazol-1-yl)methyl)phenyl)-4-methylisoxazol-3-ol] |
| > 250 | – | Oc1cc(-c2ccc(Cn3ccnc3)cc2)[nH]n1 [Compound 31, 5-(4-((1H-imidazol-1-yl)methyl)phenyl)-1H-pyrazol-3-ol] |
| > 250 | – | Oc1cc(CCCCCn2ccnc2)on1 [Compound 33, 5-(5-(1H-imidazol-1-yl)pentyl)isoxazol-3-ol] |
| 100 to 250 | – | Oc1nccc(C2=CCC(Cn3ccnc3)CC2)c1F (stereo not drawn) [Compound 36, 4-(4-((1H-imidazol-1-yl)methyl)cyclohex-1-en-1-yl)-3-fluoropyridin-2-ol] |
| – | 120 | O=C(O)/C=C/c1ccc(Cn2ccnc2)cc1 [Ozagrel, reference compound] |

Second part, the molecule before the results:

| SMILES | IC50 (class symbols) [nM] | IC50 (numeric value) [nM] |
| --- | --- | --- |
| Oc1cc(-c2ccc(Cn3ccnc3)cc2)on1 [Compound 1, 5-(4-((1H-imidazol-1-yl)methyl)phenyl)isoxazol-3-ol] | ≤ 25 | – |
| Oc1cc(-c2ccc(Cn3ccnc3)cc2F)on1 [Compound 3, 5-(4-((1H-imidazol-1-yl)methyl)-2-fluorophenyl)isoxazol-3-ol] | 50 to 100 | – |
| Oc1cc(-c2cc(F)c(Cn3ccnc3)cc2F)on1 [Compound 4, 5-(4-((1H-imidazol-1-yl)methyl)-2,5-difluorophenyl)isoxazol-3-ol] | 25 to 50 | – |
| Oc1cc(-c2cc(F)c(Cn3ccnc3)c(Cl)c2)on1 [Compound 6, 5-(4-((1H-imidazol-1-yl)methyl)-3-chloro-5-fluorophenyl)-isoxazol-3-ol] | 25 to 50 | – |
| Oc1cc(-c2ccc(Cn3ccnc3)cc2Cl)on1 [Compound 7, 5-(4-((1H-imidazol-1-yl)methyl)-2-chlorophenyl)isoxazol-3-ol] | 50 to 100 | – |
| Cc1cc(Cn2ccnc2)ccc1-c1cc(O)no1 [Compound 8, 5-(4-((1H-imidazol-1-yl)methyl)-2-methylphenyl)isoxazol-3-ol] | 50 to 100 | – |
| COc1cc(Cn2ccnc2)ccc1-c1cc(O)no1 [Compound 9, 5-(4-((1H-imidazol-1-yl)methyl)-2-methoxyphenyl)isoxazol-3-ol] | ≤ 25 | – |
| Oc1cc(-c2ccc(Cn3ccnc3)c(Cl)c2)on1 [Compound 11, 5-(4-((1H-imidazol-1-yl)methyl)-3-chlorophenyl)isoxazol-3-ol] | 25 to 50 | – |
| Cc1cc(-c2cc(O)no2)ccc1Cn1ccnc1 [Compound 12, 5-(4-((1H-imidazol-1-yl)methyl)-3-methylphenyl)isoxazol-3-ol] | 25 to 50 | – |
| Oc1cc(-c2ccc(Cn3ccnc3)c(Br)c2)on1 [Compound 13, 5-(4-((1H-imidazol-1-yl)methyl)-3-bromophenyl)isoxazol-3-ol] | 25 to 50 | – |
| Oc1cc(-c2ccc(Cn3ccnc3)nc2)on1 [Compound 14, 5-(6-((1H-imidazol-1-yl)methyl)pyridin-3-yl)isoxazol-3-ol] | > 250 | – |
| Oc1cc(-c2ccc(Cn3ccnc3)c(C3CC3)c2)on1 [Compound 15, 5-(4-((1H-imidazol-1-yl)methyl)-3-cyclopropylphenyl)isoxazol-3-ol] | 50 to 100 | – |
| CCc1cc(-c2cc(O)no2)ccc1Cn1ccnc1 [Compound 16, 5-(4-((1H-imidazol-1-yl)methyl)-3-ethylphenyl)isoxazol-3-ol] | ≤ 25 | – |
| Oc1cc(-c2cc(F)c(Cn3ccnc3)c(F)c2)on1 [Compound 17, 5-(4-((1H-imidazol-1-yl)methyl)-3,5-difluorophenyl)isoxazol-3-ol] | ≤ 25 | – |
| Cc1cc(-c2cc(O)no2)cc(C)c1Cn1ccnc1 [Compound 18, 5-(4-((1H-imidazol-1-yl)methyl)-3,5-dimethylphenyl)isoxazol-3-ol] | > 250 | – |
| CC(c1ccc(-c2cc(O)no2)cc1)n1ccnc1 (stereo not drawn) [Compound 20, 5-(4-(1-(1H-imidazol-1-yl)ethyl)phenyl)isoxazol-3-ol] | ≤ 25 | – |
| C[C@H](c1ccc(-c2cc(O)no2)cc1)n1ccnc1 [Compound 21, (R)-5-(4-(1-(1H-imidazol-1-yl)ethyl)phenyl)isoxazol-3-ol] | ≤ 25 | – |
| C[C@@H](c1ccc(-c2cc(O)no2)cc1)n1ccnc1 [Compound 22, (S)-5-(4-(1-(1H-imidazol-1-yl)ethyl)phenyl)isoxazol-3-ol] | 50 to 100 | – |
| Oc1cc(-c2cccc(Cn3ccnc3)c2)on1 [Compound 24, 5-(3-((1H-imidazol-1-yl)methyl)phenyl)isoxazol-3-ol] | > 250 | – |
| Oc1cc(Cc2cccc(Cn3ccnc3)c2)on1 [Compound 26, 5-(3-((1H-imidazol-1-yl)methyl)benzyl)isoxazol-3-ol] | > 250 | – |
| Oc1c(F)ccc(-c2ccc(Cn3ccnc3)cc2)c1F [Compound 28, 4′-((1H-imidazol-1-yl)methyl)-2,4-difluoro-[1,1′-biphenyl]-3-ol] | 100 to 250 | – |
| Oc1cc(-c2ccc(Cn3ccnc3)cc2)sn1 [Compound 29, 5-(4-((1H-imidazol-1-yl)methyl)phenyl)isothiazol-3-ol] | > 250 | – |
| Oc1cc(CCCCn2ccnc2)on1 [Compound 32, 5-(4-(1H-imidazol-1-yl)butyl)isoxazol-3-ol] | > 250 | – |
| Oc1cc([C@H]2CC[C@H](Cn3ccnc3)CC2)on1 [Compound 34, 5-(trans-4-((1H-imidazol-1-yl)methyl)cyclohexyl)isoxazol-3-ol] | 25 to 50 | – |
| Oc1cc([C@H]2CC[C@@H](Cn3ccnc3)CC2)on1 [Compound 35, 5-(cis-4-((1H-imidazol-1-yl)methyl)cyclohexyl)isoxazol-3-ol] | 50 to 100 | – |

— patent US20180104220A1, “IMIDAZOLE COMPOUND” (MEDSHINE DISCOVERY INC., priority 2015, published 2018)
